Assay results published in patent US20240279220A1, “INDOLE COMPOUNDS AND METHODS OF USE” (Genzyme Corporation, priority 2021, published 2024).

Tested on: NBD1/3D
Experiment: Aggregation analysis using differential static light scattering (DSLS), NBD1 thermal stability
Format: binding, Human
Details: ΔTagg versus DMSO control; compound at 100 μM
Method: Purified recombinant NBD1 was produced using previously described methods (A. Schmidt, J. L. Mendoza, P. J. Thomas (2011) Biochemical and Biophysical Approaches to Probe CFTR Structure (365-376) M. D. Amaral, K. Kunzelmann (eds.), Cystic Fibrosis, Methods in Molecular Biology 741, Springer Science+Business Media). The effect of test compounds on thermal stability of NBD1 was evaluated by differential static light scattering (DSLS) using the Harbinger Stargazer-384 instrument (Epiphyte Three, Toronto, Canada).
Test compounds were dissolved and diluted to desired concentrations in 100% DMSO. The compounds or DMSO controls (100 nL) were stamped into wells of a […] low volume optical plate (Corning Inc., Corning, NY) using the Echo 555 acoustic liquid handler (Labcyte Inc., San Jose, CA).
NBD1 protein was diluted to 0.2 mg/ml in S200 buffer (50 mM Tris-HCl, 150 mM NaCl, 5 mM MgCl2, 2 mM ATP, 2 mM DTT, pH7.6) containing 1% glycerol. 10 uL of protein solution was aliquoted into the 384-well plate harboring the test compounds and 10 uL mineral oil was overlayed onto the protein solution, using the epMotion robotic liquid handler (Eppendorf North America, Hauppauge, NY). After placing into the Stargazer instrument, the plate was heated at 1° C. per minute to 70° C. Images were captured from 25° C. to 70° C. every 0.5° C. At the end of the experiment run, instrument software integrated image files and analyzed data automatically. A […] regression curve was generated for each well, representing the increase in light scattering over time. A temperature of aggregation (Tagg) was calculated based on the inflection point of the curve. To better compare data across experiments the average Tagg for DMSO control wells was calculated and subtracted from values for wells containing compounds to obtain a “ΔTagg” value. These ΔTagg values reflect stabilizing efficacy of the compounds.

Row | Compound | DSLS NBD1/3D Human Stability delta-T (° C.) @ 100 (μM)
1 | Cc1c(Oc2cccc(-c3ccnn3C(C)c3cccc(CC(=O)O)c3)c2)ccc2[nH]ccc12 (stereo not shown) [Example 3, 2-(3-(1-(5-(3-((4-methyl-1H-indol-5-yl)oxy)phenyl)-1H-pyrazol-1-yl)ethyl)phenyl)acetic acid] | C (C: ≤5° C.)
2 | O=C(O)CCc1cc(F)cc(Cc2c[nH]c(-c3cc(Oc4c(F)cc5[nH]ccc5c4F)ccc3F)n2)c1 [Example 114, 3-(3-((2-(5-((4,6-difluoro-1H-indol-5-yl)oxy)-2-fluorophenyl)-1H-imidazol-4-yl)methyl)-5-fluorophenyl)propanoic acid] | B (B: 5-10° C.)
3 | CC(Cc1cccc([C@H](O)c2cnc(-c3cccc(Oc4c(F)cc5[nH]ccc5c4F)c3)[nH]2)c1)C(=O)O (stereo partly drawn) [Example 181, 3-(3-((S)-(2-(3-((4,6-Difluoro-1H-indol-5-yl)oxy)phenyl)-1H-imidazol-5-yl)(hydroxy)methyl)phenyl)-2-methylpropanoic acid] | B (B: 5-10° C.)
4 | Cc1c(Oc2ccc(F)c(-c3ncc(C(C)c4cccc([C@@H]5C[C@@H]5C(=O)O)c4F)[nH]3)c2)c(F)cc2[nH]ccc12 (single isomer, unassigned) [Example 138A, cis-2-(2-fluoro-3-(1-(2-(2-fluoro-5-((6-fluoro-4-methyl-1H-indol-5-yl)oxy)phenyl)-1H-imidazol-5-yl)ethyl)phenyl)cyclopropane-1-carboxylic acid] | C (C: ≤5° C.)
5 | Cc1c(Oc2ccc(F)c(-c3ncc(C(C)c4cccc([C@@H]5C[C@H]5C(=O)O)c4F)[nH]3)c2)c(F)cc2[nH]ccc12 (relative stereo) [Example 139E, trans-2-(2-fluoro-3-(1-(2-(2-fluoro-5-((6-fluoro-4-methyl-1H-indol-5-yl)oxy)phenyl)-1H-imidazol-5-yl)ethyl)phenyl)cyclopropane-1-carboxylic acid] | B (B: 5-10° C.)
6 | CC(O)(c1cccc(CCC(=O)O)c1)c1c[nH]c(-c2cc(Oc3c(F)cc4[nH]ccc4c3C3CC3)ccc2F)n1 (stereo not shown) [Example 193, 3-(3-(1-(2-(5-((4-cyclopropyl-6-fluoro-1H-indol-5-yl)oxy)-2-fluorophenyl)-1H-imidazol-4-yl)-1-hydroxyethyl)phenyl) propanoic acid] | B (B: 5-10° C.)
7 | [2H]C([2H])([2H])C(C#N)(c1cccc(CCC(=O)O)c1)c1cnc(-c2cc(Oc3c(F)cc4[nH]ccc4c3F)ccc2F)[nH]1 (stereo not shown) [Example 60, 3-(3-(1-cyano-1-(2-(5-((4,6-difluoro-1H-indol-5-yl)oxy)-2-fluorophenyl)-1H-imidazol-5-yl)ethyl-2,2,2-d3)phenyl)propanoic acid] | B (B: 5-10° C.)
8 | CCCCC(O)(c1cccc(CCC(=O)O)c1)c1c[nH]c(-c2cc(Oc3c(F)cc4[nH]ccc4c3C)ccc2F)n1 (stereo not shown) [Example 226, 3-(3-(1-(2-(2-fluoro-5-((6-fluoro-4-methyl-1H-indol-5-yl)oxy)phenyl)-1H-imidazol-4-yl)-1-hydroxypentyl)phenyl) propanoic acid] | B (B: 5-10° C.)
9 | Cc1c(Oc2ccc(F)c(-c3ncc(C(C)(C#N)c4cccc(CCC(=O)O)c4)[nH]3)c2)c(F)cc2[nH]ccc12 (stereo not shown) [Example 50, 3-(3-(1-cyano-1-(2-(2-fluoro-5-((6-fluoro-4-methyl-1H-indol-5-yl)oxy)phenyl)-1H-imidazol-5-yl)ethyl)phenyl)propanoic acid] | B (B: 5-10° C.)
10 | CC1CC(c2cccc(CCC(=O)O)c2)(c2cnc(-c3cc(Oc4c(F)cc5[nH]ccc5c4F)ccc3F)[nH]2)CC(C)O1 (stereo not shown) [Example 142, 3-(3-(4-(2-(5-((4,6-Difluoro-1H-indol-5-yl)oxy)-2-fluorophenyl)-1H-imidazol-5-yl)-2,6-dimethyltetrahydro-2H-pyran-4-yl)phenyl)propanoic acid] | A (A: T ≥ 10° C.)
11 | CC(C#N)(c1cccc(CCC(=O)O)c1)c1c[nH]c(-c2cc(Oc3c(F)cc4[nH]ccc4c3CC(F)F)ccc2F)n1 (stereo not shown) [Example 55, 3-(3-(1-cyano-1-(2-(5-((4-(2,2-difluoroethyl)-6-fluoro-1H-indol-5-yl)oxy)-2-fluorophenyl)-1H-imidazol-4-yl)ethyl)phenyl)propanoic acid] | B (B: 5-10° C.)
12 | Cc1c(Oc2ccc(F)c(-c3ncc(C(OCCO)c4cccc(CCC(=O)O)c4)[nH]3)c2)c(F)cc2[nH]ccc12 (stereo not shown) [Example 235, 3-(3-((2-(2-fluoro-5-((6-fluoro-4-methyl-1H-indol-5-yl)oxy)phenyl)-1H-imidazol-5-yl)(2-hydroxyethoxy)methyl)phenyl) propanoic acid] | B (B: 5-10° C.)
13 | CCC(O)(c1cccc(CCC(=O)O)c1)c1cnc(-c2cc(Oc3c(F)cc4[nH]ccc4c3C)ccc2F)[nH]1 (stereo not shown) [Example 223, 3-(3-(1-(2-(2-fluoro-5-((6-fluoro-4-methyl-1H-indol-5-yl)oxy)phenyl)-1H-imidazol-5-yl)-1-hydroxypropyl)phenyl) propanoic acid] | B (B: 5-10° C.)
14 | [2H]C([2H])([2H])C(C#N)(c1cc(F)cc(CCC(=O)O)c1)c1c[nH]c(-c2cc(Oc3c(F)c(F)c4[nH]ccc4c3F)ccc2F)n1 (single isomer, unassigned) [Example 66, 3-(3-(1-cyano-1-(2-(2-fluoro-5-((4,6,7-trifluoro-1H-indol-5-yl)oxy)phenyl)-1H-imidazol-4-yl)ethyl-2,2,2-d3)-5-fluorophenyl)propanoic acid] | B (B: 5-10° C.)
15 | CC(c1c[nH]c(-c2cc(Oc3c(F)cc4[nH]ccc4c3S(C)(=N)=O)ccc2F)n1)c1cccc(CCC(=O)O)c1F (single isomer, unassigned) [Example 136A, 3-(2-fluoro-3-(1-(2-(2-fluoro-5-((6-fluoro-4-(S-methylsulfonimidoyl)-1H-indol-5-yl)oxy)phenyl)-1H-imidazol-4-yl)ethyl)phenyl)propanoic acid] | B (B: 5-10° C.)
16 | Cc1c(Oc2ccc(F)c(-c3ncc(C4(c5cccc(CCC(=O)O)c5)CCOCC4)[nH]3)c2)c(F)cc2[nH]ccc12 [Example 148, 3-(3-(4-(2-(2-fluoro-5-((6-fluoro-4-methyl-1H-indol-5-yl)oxy)phenyl)-1H-imidazol-5-yl)tetrahydro-2H-pyran-4-yl)phenyl)propanoic acid] | A (A: T ≥ 10° C.)
17 | CC(O)(c1cccc(CCC(=O)O)c1)c1c[nH]c(-c2cc(Oc3c(F)cc4[nH]ccc4c3CC(F)F)ccc2F)n1 (stereo not shown) [Example 188, 3-(3-(1-(2-(5-((4-(2,2-difluoroethyl)-6-fluoro-1H-indol-5-yl)oxy)-2-fluorophenyl)-1H-imidazol-4-yl)-1-hydroxyethyl)phenyl) propanoic acid] | B (B: 5-10° C.)
18 | CS(=O)(=O)c1c(Oc2ccc(F)c(-c3ncc(Cc4cccc(CCC(N)=O)c4)[nH]3)c2)c(F)cc2[nH]ccc12 [Example 24, 3-(3-((2-(2-Fluoro-5-((6-fluoro-4-(methylsulfonyl)-1H-indol-5-yl)oxy)phenyl)-1H-imidazol-5-yl)methyl)phenyl)propanamide] | B (B: 5-10° C.)
19 | Cc1c(Oc2cccc(-c3nnc(Cc4cccc([C@@H]5C[C@H]5C(=O)O)c4)[nH]3)c2)ccc2[nH]ccc12 (racemic) [Example 243, rac-(1R,2R)-2-(3-((5-(3-((4-Methyl-1H-indol-5-yl)oxy)phenyl)-4H-1,2,4-triazol-3-yl)methyl)phenyl)cyclopropane-1-carboxylic acid] | B (B: 5-10° C.)
20 | Cc1c(Oc2cccc(-c3ccc(Cc4cccc(CCC(=O)O)c4)[nH]3)c2)c(F)cc2[nH]ccc12 [Example 21, 3-(3-((5-(3-((6-Fluoro-4-methyl-1H-indol-5-yl)oxy)phenyl)-1H-pyrrol-2-yl)methyl)phenyl)propanoic acid] | C (C: ≤5° C.)
21 | CC(c1cnc(-c2cc(Oc3c(F)cc4[nH]ccc4c3F)ccc2F)[nH]1)c1cc(F)cc(CCC(=O)O)c1F (single isomer, unassigned) [Example 132A, 3-(3-(1-(2-(5-((4,6-difluoro-1H-indol-5-yl)oxy)-2-fluorophenyl)-1H-imidazol-5-yl)ethyl)-2,5-difluorophenyl)propanoic acid] | C (C: ≤5° C.)
22 | CC(O)(c1cccc(CCC(=O)O)c1)c1csc(-c2cccc(Oc3c(F)cc4[nH]ccc4c3S(C)(=O)=O)c2)n1 (stereo not shown) [Example 37, 3-(3-(1-(2-(3-((6-Fluoro-4-(methylsulfonyl)-1H-indol-5-yl)oxy)phenyl)thiazol-4-yl)-1-hydroxyethyl)phenyl)propanoic acid] | B (B: 5-10° C.)
